From patent US8709396B2, “Method and composition for attracting arthropods by volatizing an acid” (Premark FEG L.L.C., priority 2002, dated 2014) come the findings set out here.

For the assay, the system named is Aedes aegypti (AE) mosquitoes. As to the kind of experiment: olfactometer two-stimulus choice test, average percent of mosquitoes attracted. It counts as in vivo. The settings on record: for attraction of mosquitoes, result in words: olfactometer, AE mosquitoes, summary statements of the text. As for the experimental part:
100 Aedes aegypti (AE) mosquitoes were placed into an olfactometer unit. For each test, the mosquitoes were exposed to two sets of stimuli for a collection period of 3 minutes. The mosquitoes could choose between the stimuli or not respond.
For the first test, ferric chloride hexahydrate was impregnated on diatomaceous earth and was activated with a moisture containing substance to form the first stimulus center. This material released water and trace amounts of hydrochloric acid, HCl. The second stimulus center in this test was a blank (no chemical stimulus).
For the second test, dry carbon dioxide was fed at 5 ml/min from a standard gas cylinder as the first stimulus center. The second stimulus center in this test was a blank (no chemical stimulus).
For the third test, ferric chloride hexahydrate was impregnated on diatomaceous earth and was activated with a moisture containing substance to form the first stimulus center. This material released water and trace amounts of hydrochloric acid, HCl. The second stimulus center was dry carbon dioxide fed at 5 ml/min from a standard gas cylinder.
As with Example 1, 100 AE mosquitoes were placed into an olfactometer unit. For each test, the mosquitoes were exposed to two sets of stimuli for a collection period of 3 minutes. The mosquitoes could choose between the stimuli or not respond.
For the first test, dry carbon dioxide was fed at 5 ml/min from a standard gas cylinder as the first stimulus center. The second stimulus center in this test was a blank (no chemical stimulus).
For the second test, ferric chloride hexahydrate impregnated on diatomaceous earth and sodium bicarbonate powder were contained in a sachet. The sachet was activated by combining the two powders stimulating a chemical reaction that released carbon dioxide, water and trace amounts of hydrochloric acid, forming the first stimulus center. The reaction produces by-product water that stimulates hydrochloric acid production from the ferric chloride. The sachet was designed to release CO2 at a rate of 5 ml/min over the collection period. The second stimulus center in this test was a blank (no chemical stimulus).
For the third test, a sachet containing ferric chloride hexahydrate impregnated on diatomaceous earth and sodium bicarbonate powder, similar to the sachet used in the second test, was activated with a moisture-containing substance to release carbon dioxide water and trace amounts of hydrochloric acid, forming the first stimulus center. The reaction produces by-product water that stimulates hydrochloric acid production from the ferric chloride. The second stimulus center was carbon dioxide fed at 5 ml/min from a standard gas cylinder.
As with Examples 1 and 2, 100 AE mosquitoes were placed into an olfactometer unit. For each test, the mosquitoes were exposed to two sets of stimuli for a collection period of 3 minutes. The mosquitoes could choose between the stimuli or not respond.
For the first test, ferric chloride hexahydrate impregnated on a diatomaceous earth was activated with a moisture containing substance to form the first stimulus center. This material released water and trace amounts of hydrochloric acid, HCl. The second stimulus center in this test was a blank (no chemical stimulus).
The sachet was activated by combining the two powders stimulating a chemical reaction that released carbon dioxide, water and trace amounts of hydrochloric acid, forming the first stimulus center. The reaction produces by-product water that stimulates hydrochloric acid production from the ferric chloride. The sachet was designed to release carbon dioxide at a rate of 5 ml/min. The second stimulus center in this test was a blank.
For the third test, a sachet identical to that used in the second test and containing ferric chloride hexahydrate impregnated on diatomaceous earth and sodium bicarbonate powder was activated, forming the first stimulus center.

For `O=C=O` [CO2 (Dry), carbon dioxide], the “Stimulant 2 - Avg. % attracted” value (100 AE mosquitoes, 3 min, first stimulus center Activated Ferric Chloride) turned out to be 12%; the “Stimulant 2 - Avg. % attracted” value (100 AE mosquitoes, 3 min, first stimulus center CO2/HCl/H2O Sachet) was found to be 2%; the “Stimulant 2 - Avg. % attracted” value (Example 4: CO2 5 mL/min, 3 min, first stimulus center CO2 flowing over water surface) stood at 7%. The “Stimulant 1 - Avg. % attracted” value by setting is: (100 AE mosquitoes, 3 min collection, second stimulus center blank (Examples 1-3)) 21%; (Example 4: dry CO2 5 mL/min through tube or cartridge, 100 AE mosquitoes, 3 min, second stimulus center blank) 15%. Further, the “attraction of mosquitoes, result in words” value is listed as “is an attractant for mosquitoes” (listed as CO2 (dry)) and “did not draw significant numbers” (listed as carbon dioxide).
